Experimental data as given in patent US20240299420A1, “TETRACYCLINE DERIVATIVE-INDUCED MITOHORMESIS MEDIATES DISEASE TOLERANCE AGAINST VIRAL INFECTIONS” (priority 2021, published 2024).

Test system: hsp-6::gfp reporter (UPR^mt)
Assay type: in vivo, Caenorhabditis elegans
Conditions: for Activity in Worm Assay: UPR^mt induction, C. elegans hsp-6::gfp reporter, compounds at 68 µM; for UPR^mt activation (hsp-6::gfp reporter): 68 µM, 9-TB at 17 μM

Compound: CN(C)[C@@H]1C(O)=C(C(N)=O)C(=O)[C@@]2(O)C(O)=C3C(=O)c4c(O)cccc4C(CSC4CCCC4)[C@H]3[C@H](O)[C@@H]12 (some centres unmarked) [13-cyclopentylthio dihydro methacycline]
- Activity in Worm Assay: slight

Compound: CCCCCC(=O)O[C@H]1[C@H]2C(=C(O)[C@]3(O)C(=O)C(C(N)=O)=C(O)[C@@H](N(C)C)[C@H]13)C(=O)c1c(O)cccc1[C@@H]2C [5-hexanoate doxycycline]
- Activity in Worm Assay: slight

Compound: CN(C)c1ccc(O)c2c1C[C@H]1C[C@H]3[C@H](N(C)C)C(O)=C(C(N)=O)C(=O)[C@@]3(O)C(O)=C1C2=O [minocycline, reference compound]
- UPR^mt activation (hsp-6::gfp reporter): did not activate
- Activity in Worm Assay: inactive

Compound: CN(C)[C@@H]1C(O)=C(C(N)=O)C(=O)[C@@]2(O)C(O)=C3C(=O)c4c(O)ccc(-c5ccc(F)cc5)c4C[C@H]3C[C@@H]12 [7-(4-fluoro-phenyl)sancycline]
- Activity in Worm Assay: inactive

Compound: CC(=O)Nc1ccc2c(c1O)C(=O)C1=C(O)[C@]3(O)C(=O)C(C(N)=O)=C(O)[C@@H](N(C)C)[C@@H]3[C@@H](O)[C@@H]1[C@H]2C [9-acetylamino doxycycline]
- Activity in Worm Assay: inactive

Compound: CN(C)c1ccc(O)c2c1C[C@H]1C[C@H]3[C@H](N(C)C)C(O)=C(C#N)C(=O)[C@@]3(O)C(O)=C1C2=O [2N nitrile minocycline]
- Activity in Worm Assay: inactive

Compound: CN(C)[C@@H]1C(O)=C(C(N)=O)C(=O)[C@@]2(O)C(O)=C3C(=O)c4c(ccc(C(C)(C)C)c4O)C[C@H]3C[C@@H]12 [9-tert-butyl sancycline]
- Activity in Worm Assay: inactive

Compound: CCc1cc(N(C)C)c2c(c1O)C(=O)C1=C(O)[C@]3(O)C(=O)C(C(N)=O)=C(O)[C@@H](N(C)C)[C@@H]3C[C@@H]1C2 [9-ethyl minocycline]
- Activity in Worm Assay: inactive

Compound: CN(C)c1cc(NC(=O)Nc2cc(C(F)(F)F)cc(C(F)(F)F)c2)c(O)c2c1C[C@H]1C[C@H]3[C@H](N(C)C)C(O)=C(C(N)=O)C(=O)[C@@]3(O)C(O)=C1C2=O [9-(3,5-trifluoromethyl-phenylurea) aminominocycline]
- Activity in Worm Assay: inactive

Compound: NC(=O)C1=C(O)C[C@@H]2C[C@@H]3Cc4ccc(N)c(O)c4C(=O)C3=C(O)[C@]2(O)C1=O [4-dedimethyl-amino-9-amino sancycline]
- Activity in Worm Assay: inactive

Compound: CN(C)c1ccc(O)c2c1C[C@H]1C[C@H]3[C@H](N(C)C)C(O)=C(C(N)=O)C4=NNC(O)(C1C2=O)[C@]43O (some centres unmarked) [1,12-hydroxypyrazolo minocycline]
- Activity in Worm Assay: inactive

Compound: CN(C)[C@@H]1C(O)=C(C(N)=O)C(=O)[C@@]2(O)C(O)=C3C(=O)c4c(O)cccc4C(CSC4CCCC4)[C@H]3[C@H](OC(=O)C3CCCC3)[C@@H]12 (some centres unmarked) [5-cyclopentanoate-13-cyclopentylthio dihydro methacycline]
- Activity in Worm Assay: slight

Compound: CN(C)c1cc(NC(=O)CNC(C)(C)C)c(O)c2c1C[C@H]1C[C@H]3[C@H](N(C)C)C(O)=C(C(N)=O)C(=O)[C@@]3(O)C(O)=C1C2=O [Tygacil ™, reference compound]
- UPR^mt activation (hsp-6::gfp reporter): did not activate
- Activity in Worm Assay: slight

Compound: CCOC(=O)/C=C/c1ccc2c(c1O)C(=O)C1=C(O)[C@]3(O)C(=O)C(C(N)=O)=C(O)[C@@H](N(C)C)[C@@H]3[C@@H](O)[C@@H]1[C@H]2C [9-ethylacrylate doxycycline]
- Activity in Worm Assay: slight

Compound: CN(C)c1ccc(OS(=O)(=O)C(F)(F)F)c2c1C[C@H]1C[C@H]3[C@H](N(C)C)C(O)=C(C(N)=O)C(=O)[C@@]3(O)C(O)=C1C2=O [10-triflate minocycline]
- Activity in Worm Assay: inactive

Compound: CN(C)c1cc(-c2ccc(C(=O)O)s2)c(O)c2c1C[C@H]1C[C@H]3[C@H](N(C)C)C(O)=C(C(N)=O)C(=O)[C@@]3(O)C(O)=C1C2=O [9-(4′-carboxy-1′-thiophene) minocycline]
- Activity in Worm Assay: inactive

Compound: CCC(=O)O[C@H]1[C@H]2C(=C(O)[C@]3(O)C(=O)C(C(N)=O)=C(O)[C@@H](N(C)C)[C@H]13)C(=O)c1c(O)cccc1[C@@H]2C [5-propionate doxycycline]
- Activity in Worm Assay: inactive

Compound: COc1ccc(/C=C2\c3cccc(O)c3C(=O)C3=C(O)[C@]4(O)C(=O)C(C(N)=O)=C(O)[C@@H](N(C)C)[C@@H]4[C@@H](O)[C@@H]32)cc1 [13-(4′-methoxyphenyl) methacycline]
- Activity in Worm Assay: slight

Compound: CN(C)c1ccc(O)c2c1C[C@H]1C[C@H]3[C@H](N(C)C)C(O)=C(C(N)=O)C(=O)[C@@]3(O)C3NN=C2C31 (some centres unmarked) [11,12-pyrazolo minocycline]
- Activity in Worm Assay: inactive

Compound: CN(C)[C@@H]1C(O)=C(C(N)=O)C(=O)[C@@]2(O)C(O)=C3C(=O)c4c(O)ccc(Cl)c4[C@@H](O)[C@H]3C[C@@H]12 [demeclocycline, reference compound]
- Activity in Worm Assay: slight

Compound: CN(C)[C@@H]1C(O)=C(C(N)=O)C(=O)[C@@]2(O)C(O)=C3C(=O)c4c(O)cccc4S[C@H]3C[C@@H]12 [Thiatetracycline, reference compound]
- Activity in Worm Assay: inactive

Compound: CN(C)[C@@H]1C(O)=C(C(N)=O)C(=O)[C@@]2(O)C(O)=C3C(=O)c4c(O)cccc4C(CSc4ccccc4)[C@H]3[C@H](O)[C@@H]12 (some centres unmarked) [13-thiophenyl dihydro methacycline]
- Activity in Worm Assay: slight

Compound: Omadacycline [reference compound]
- UPR^mt activation (hsp-6::gfp reporter): did not activate
- Activity in Worm Assay: inactive

Compound: 11,12-pyrazolo doxycycline
- Activity in Worm Assay: inactive

Compound: 4-oxime minocycline
- Activity in Worm Assay: inactive

Compound: CN(C)[C@@H]1C(O)=C(C(N)=O)C(=O)[C@@]2(O)C(O)=C3C(=O)c4c(O)ccc(C5CCCC5)c4C[C@H]3C[C@@H]12 [7-cyclopentyl sancycline]
- Activity in Worm Assay: inactive

Compound: CN(C)c1ccc(O)c2c1C[C@H]1C[C@H]3CC(O)=C(C(N)=O)C(=O)[C@@]3(O)C(O)=C1C2=O [4-dedimethylamino minocycline]
- Activity in Worm Assay: inactive

Compound: C[C@H]1c2cccc(O)c2C(=O)C2=C(O)[C@]3(O)C(=O)C(C#N)=C(O)[C@@H](N(C)C)[C@@H]3[C@@H](O)[C@@H]21 [2N-nitrile doxycycline]
- Activity in Worm Assay: inactive

Compound: CCCCc1ccc(O)c2c1C[C@H]1C[C@H]3[C@H](N(C)C)C(O)=C(C(N)=O)C(=O)[C@@]3(O)C(O)=C1C2=O [7-butyl sancycline]
- Activity in Worm Assay: slight

Compound: CN(C)c1cc(-c2sccc2C(=O)O)c(O)c2c1C[C@H]1C[C@H]3[C@H](N(C)C)C(O)C(C(N)=O)C(=O)[C@@]3(O)C(O)=C1C2=O (some centres unmarked) [9-(2′carboxy-1′-thiophene) minocycline]
- Activity in Worm Assay: inactive

Compound: CN(C)c1cc(N)c(O)c2c1C[C@H]1C[C@H]3CC(O)=C(C(N)=O)C(=O)[C@@]3(O)C(O)=C1C2=O [4-dedimethylamino-9-aminominocycline]
- Activity in Worm Assay: inactive

Compound: CCc1ccc2c(c1O)C(=O)C1=C(O)[C@]3(O)C(=O)C(C(N)=O)=C(O)[C@@H](N(C)C)[C@@H]3[C@@H](O)[C@@H]1[C@H]2C [9-ethyl doxycycline]
- Activity in Worm Assay: inactive
